According to US7709478B2, “Acylated 6,7,8,9-tetrahydro-5H-benzocycloheptenyl amines and their use as pharmaceutical agents” (sanofi-aventis Deutschland GmbH, priority 2001, dated 2010):

Experiments:
eNOS promoter = assay: Activation of eNOS transcription (eNOS promoter-luciferase reporter gene assay); type: cell-based, human; details: 18 h incubation; for EC50: EC50 of transcription induction ratio vs compound concentration, determined graphically, human endothelial cell line stably transfected with eNOS promoter-luciferase construct; for maximal fold induction / TIR(max): maximum transcription induction ratio (luciferase activity with compound / solvent alone), human endothelial cell line with eNOS promoter-luciferase construct; for maximal fold induction: read-out: TIR(max)
In short: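 Human endothelial cell line stably carrying a 3.5 kB eNOS promoter fragment driving firefly luciferase, treated 18 h with compound (0.5% DMSO final). Luciferase induction relative to solvent gave transcription induction ratio versus concentration; EC50 determined graphically.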

Row | melting point [°C] | EC50 (eNOS promoter) [µM] | SMILES | maximal fold induction (eNOS promoter) | TIR(max) (eNOS promoter)
1 | 165 | 0.02 | O=C(NC1CCCc2ccccc2C1)c1ccc(F)cc1 (stereo not shown) [Compound 1, 4-FLUORO-N-(6,7,8,9-TETRAHYDRO-5H-BENZOCYCLOHEPTEN-6-YL)-BENZAMIDE] | 3.3 | –
2 | – | < 0.08 | CCOc1ccc(C(=O)NC2CCCc3ccccc3C2)cc1 (stereo not shown) [Compound 5, 4-ETHOXY-N-(6,7,8,9-TETRARYDRO-5H-BENZOCYCLOHEPTEN-6-YL)-BENZAMIDE] | – | 3.0
3 | – | 6 | O=C(NC1CCCc2ccccc2C1)c1ccc(F)cc1 (single isomer, unassigned; (+)) [Compound 1b, (+)-4-Fluoro-N-(6,7,8,9-tetrahydro-5H-benzocyclohepten-6-yl)-benzamide] | – | 2.9
4 | – | 0.04 | O=C(N[C@H]1CCCc2ccccc2C1)c1ccc(OCC(F)(F)F)cc1 [Compound 125, (S)—N-(6,7,8,9-TETRAHYDRO-5H-BENZOCYCLOHEPTEN-6-YL)-4-(2,2,2-TRIFLUORO-ETHOXY)-BENZAMIDE] | 3 | –

More lines, now with the values behind:

Row | SMILES | melting point [°C] | EC50 (eNOS promoter) [µM] | maximal fold induction (eNOS promoter) | TIR(max) (eNOS promoter)
5 | O=C(NC1CCCc2ccccc2C1O)c1ccc(F)cc1 (stereo not shown) [Compound 2, 4-FLUORO-N-(5-HYDROXY-6,7,8,9-TETRAHYDRO-5H-BENZOCYCLOHEPTEN-6-YL)-BENZAMIDE] | 156 | 6 | 2.2 | –
6 | Cc1nc2ccc(C(=O)N[C@H]3CCCc4ccccc4C3)cc2[nH]1 [Compound 7, (S)-2-METHYL-3H-BENZOIMIDAZOLE-5-CARBOXYLIC ACID (6,7,8,9-TETRAHYDRO-5H-BENZOCYCLOHEPTEN-6-YL)-AMIDE] | 206 | 0.075 | 3.3 | –
7 | Cc1nc(N)c(C(=O)NC2CCCc3ccccc3C2)nc1C (stereo not shown) [Compound 72, 3-AMINO-5,6-DIMETHYL-PYRAZINE-2-CARBOXYLIC ACID (6,7,8,9-TETRAHYDRO-5H-BENZOCYCLOHEPTEN-6-YL)-AMIDE] | – | 0.071 | 3.1 | –
8 | O=C(NC1CCCc2ccccc2C1)c1ccc2cc[nH]c2c1 (stereo not shown) [Compound 20, 1H—INDOLE-6-CARBOXYLIC ACID (6,7,8,9-TETRAHYDRO-5H-BENZOCYCLOHEPTEN-6-YL)-AMIDE] | – | 0.016 | 3.1 | –
9 | COc1ccc(C(=O)NC2CCCc3ccccc3C2)cn1 (stereo not shown) [Compound 102, 6-METHOXY-N-(6,7,8,9-TETRAHYDRO-5H-BENZOCYCLOHEPTEN-6-YL)-NICOTINAMIDE] | – | 0.083 | 2.9 | –
10 | Cc1cc(Cl)ccc1C(=O)NC1CCCc2ccccc2C1 (stereo not shown) [Compound 3, 4-CHLORO-2-METHYL-N-(6,7,8,9-TETRAHYDRO-5H-BENZOCYCLOHEPTEN-6-YL)-BENZAMIDE] | – | < 0.08 | 2.2 | –
11 | O=C(NC1CCCc2ccccc2C1)c1cnn(-c2ccccc2)c1C(F)(F)F (single isomer, unassigned) [Compound 34, 1-PHENYL-5-TRIFLUOROMETHYL-1H-PYRAZOLE-4-CARBOXYLIC ACID (6,7,8,9-TETRAHYDRO-5H-BENZOCYCLOHEPTEN-6-YL)-AMIDE] | – | 0.06 | 2.8 | –
